Series [1] is described as follows: membrane affinity as a measure of the lipophilicity (TRANSIL technology). It counts as physicochemical.
The conditions of series [2]: water solubility, from the literature; cited from earlier work.
The target of another series is human serum albumin (Homo sapiens, UniProt P02768). In words: binding constant to human serum albumin (TRANSIL technology). An excerpt:
The effective molecular weight (MW) is obtained simply from the respective empirical formula of the substance. The waters solubilities and the typical administered dosages of these commercially available products are furthermore known from the literature.
The ADME maps in FIGS. 5 to 10 show by way of example a selection of commercially available pharmaceutical substances. The substance names and the associated experimental measurement values for their physicochemical properties are summarised in Table 1.

Where [3] appears, read: log binding constant to human serum albumin, TRANSIL.

Values after ≈ are worked out from the molar mass of the structure shown. Read-outs that look alike come from different tables or passages of the source.

Sequence of human serum albumin (P02768 25-609): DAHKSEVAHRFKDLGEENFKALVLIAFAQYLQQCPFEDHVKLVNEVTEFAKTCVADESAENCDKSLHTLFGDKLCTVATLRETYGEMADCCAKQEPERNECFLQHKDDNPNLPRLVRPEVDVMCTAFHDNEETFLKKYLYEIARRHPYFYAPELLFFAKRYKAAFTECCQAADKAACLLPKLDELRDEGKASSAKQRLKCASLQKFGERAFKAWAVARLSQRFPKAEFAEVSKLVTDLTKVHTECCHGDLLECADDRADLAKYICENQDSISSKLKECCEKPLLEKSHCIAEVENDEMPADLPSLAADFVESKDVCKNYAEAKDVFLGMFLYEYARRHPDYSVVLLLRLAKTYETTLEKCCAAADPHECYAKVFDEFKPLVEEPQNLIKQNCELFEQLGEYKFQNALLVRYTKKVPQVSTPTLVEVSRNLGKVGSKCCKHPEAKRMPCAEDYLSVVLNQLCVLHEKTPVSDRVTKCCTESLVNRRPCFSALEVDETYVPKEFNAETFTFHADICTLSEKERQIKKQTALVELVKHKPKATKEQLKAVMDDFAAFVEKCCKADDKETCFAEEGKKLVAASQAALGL

In turn, `CN1C(=O)CN=C(c2ccccc2F)c2cc([N+](=O)[O-])ccc21` [Flunitrazepam] displayed a LogMA in series [1] of 2.477. Also, the Solubility in series [2] was 72.8 mg/L (≈ 232 µM).
In the case of `CO/N=C(\C(=O)N[C@@H]1C(=O)N2C(C(=O)O)=C(COC(N)=O)CS[C@H]12)c1ccco1` [Cefuroxime], the LogMA in series [1] is reported as 0.477. At human serum albumin (human), this compound gave a LogHSA of −2.553. The Solubility in series [2] is given as 145 mg/L (≈ 342 µM).
Compound Clomipramin yielded a LogMA in series [1] of 4.104. On human serum albumin (setting [3]), this compound displayed a LogHSA of −2.796. In addition, in series [2], the Solubility is 0.294 mg/L.
In series [1], `CC(C)(O/N=C(\C(=O)N[C@@H]1C(=O)N2C(C(=O)[O-])=C(C[n+]3ccccc3)CS[C@H]12)c1csc(N)n1)C(=O)O` [Ceftazidime] returned a LogMA of 1.000. At human serum albumin (human), this compound showed a LogHSA of −2.495. The Solubility in series [2] is more than 500 mg/L.
In turn, `O=C1NC(=O)C(c2ccccc2)(c2ccccc2)N1` [Phenytoin] displayed a LogMA in series [1] of 2.778. The compound further yielded a LogHSA on human serum albumin (human) of −3.639. For the same compound, the Solubility in series [2] is recorded as 1267 mg/L (≈ 5020 µM).
`CCCC(CCC)C(=O)O` [Valproic acid]: in series [1], the LogMA stood at 1.041. The compound also showed a LogHSA at human serum albumin (human) of −3.921. Also, the Solubility in series [2] is given as 895 mg/L (≈ 6210 µM).
For the compound `CNCCCN1c2ccccc2CCc2ccccc21` [Despiramine], the LogHSA at human serum albumin (setting [3]) is on record as −3.398. Moreover, the Solubility in series [2] was 0.99 mg/L (≈ 3.72 µM).
For the compound `CCCCNC(=O)NS(=O)(=O)c1ccc(C)cc1` [Tolbutamid], the Solubility in series [2] is 109 mg/L (≈ 403 µM).
With `NC(=O)N1C(=O)/C(=C(\O)c2cccs2)c2cc(Cl)ccc21` [Tenidap], in series [2], the Solubility is recorded as 2676 mg/L (≈ 8340 µM).
On to `CC(C)(C)NCC(O)COc1cccc2c1CC(O)C(O)C2` (centres unmarked) [Nadolol], for which the LogMA in series [1] was 0.602. Further, the Solubility in series [2] is listed as 22400 mg/L (≈ 72400 µM).
For the compound `CC(C)NCC(O)COc1cccc2ccccc12` (centres unmarked) [Propranolol], the LogMA in series [1] amounted to 3.146. Also, on human serum albumin (human), the LogHSA is on record as −4.028. Further, in series [2], the Solubility is on record as 609 mg/L (≈ 2350 µM).
Compound `CCn1cc(C(=O)O)c(=O)c2cc(F)c(N3CCNCC3)nc21` [Enoxacin] yielded a LogMA in series [1] of 0.954. On human serum albumin (human), this compound returned a LogHSA of −2.278. In addition, in series [2], the Solubility is on record as 34300 mg/L (≈ 107000 µM).
Consider `COc1cc2nc(N3CCN(C(=O)C4CCCO4)CC3)nc(N)c2cc1OC` (centres unmarked) [Terazosin], for which the LogMA in series [1] was determined as 1.785. Moreover, in series [2], the Solubility is reported as 205 mg/L (≈ 529 µM).
As to `CN(Cc1cnc2nc(N)nc(N)c2n1)c1ccc(C(=O)N[C@@H](CCC(=O)O)C(=O)O)cc1` [Metotrexate], the LogMA in series [1] is 1.176. The LogHSA on human serum albumin (setting [3]) is on record as −3.796. In series [2], the Solubility is on record as 26000 mg/L (≈ 57200 µM).
In series [1], `CCN(CC)CCNC(=O)c1ccc(NC(C)=O)cc1` [N-Acetylprocainamide] came in with a LogMA of 1.176. This compound showed a LogHSA on human serum albumin (setting [3]) of −2.268. The Solubility in series [2] was more than 1000 mg/L.
As to `CC(C)(C)NCC(O)c1cc(O)cc(O)c1` (centres unmarked) [Terbutaline], in series [1], the LogMA turned out to be 0.845. Also, the LogHSA on human serum albumin (human) is −2.398. In addition, the Solubility in series [2] is listed as 212800 mg/L (≈ 945000 µM).
`N=C(N)N/N=C/c1c(Cl)cccc1Cl` [Guanabenz]: the LogMA in series [1] came to 0.602. Moreover, at human serum albumin (human), the LogHSA was −3.745. The Solubility in series [2] is reported as 1055 mg/L (≈ 4570 µM).
`CN1C(C(=O)Nc2ccccn2)=C(O)c2ccccc2S1(=O)=O` [Piroxicam] registered a LogMA in series [1] of 2.079. Also, the LogHSA at human serum albumin (human) is −5.301. In addition, the Solubility in series [2] is reported as 521 mg/L (≈ 1570 µM).
For `C[C@@H]1C[C@H]2[C@@H]3CCC4=CC(=O)C=C[C@]4(C)[C@@]3(F)[C@@H](O)C[C@]2(C)[C@@]1(O)C(=O)CO` [Dexamethasone], the Solubility in series [2] was 93 mg/L (≈ 237 µM).
As to `CC1(C)S[C@@H]2[C@H](NC(=O)Cc3ccccc3)C(=O)N2[C@H]1C(=O)O` [Penicilin G], the LogMA in series [1] is on record as 1.041. Also, on human serum albumin (setting [3]), the LogHSA is reported as −4.301. The Solubility in series [2] is given as 50 mg/L (≈ 150 µM).
`CCOC(=O)C1=C(C)NC(C)=C(C(=O)OC)C1c1cccc([N+](=O)[O-])c1` (centres unmarked) [Nitrendipine] showed a LogHSA at human serum albumin (human) of −4.824. Also, in series [2], the Solubility is 77 mg/L (≈ 214 µM).
`COC(=O)C1=C(C)NC(C)=C(C(=O)OC(C)C)C1c1cccc2nonc12` (centres unmarked) [Isradipin] yielded a LogMA in series [1] of 3.699. On human serum albumin (setting [3]), the LogHSA is reported as −4.301. Besides, the Solubility in series [2] is 49 mg/L (≈ 132 µM).
Consider `OC(Cn1cncn1)(Cn1cncn1)c1ccc(F)cc1F` [Fluconazole], for which, in series [2], the Solubility is recorded as 1086 mg/L (≈ 3550 µM).
In the case of `COC(=O)C1=C(C)NC(C)=C(C(=O)OCC(C)C)C1c1ccccc1[N+](=O)[O-]` (centres unmarked) [Nisoldipine], on human serum albumin (human), the LogHSA is reported as −5.319. The Solubility in series [2] is reported as 25 mg/L (≈ 64.4 µM).
Take `CO/N=C(\C(=O)N[C@@H]1C(=O)N2C(C(=O)O)=C(CSc3nc(=O)c(=O)[nH]n3C)CS[C@H]12)c1csc(N)n1` [Ceftriaxone]: the LogMA in series [1] stood at 0.903. This compound also came in with a LogHSA on human serum albumin (human) of −3.585. Besides, the Solubility in series [2] is listed as 958 mg/L (≈ 1730 µM).
`Cn1c(=O)c2[nH]cnc2n(C)c1=O` [Theophiline] showed a LogMA in series [1] of 0.886. The Solubility in series [2] was 2800 mg/L (≈ 15500 µM).
In series [1], `C[C@]12C[C@H](O)[C@H]3[C@@H](CCC4=CC(=O)CC[C@@]43C)[C@@H]1CC[C@@H]2C(=O)CO` [Corticosterone] gave a LogMA of 2.531. In addition, the Solubility in series [2] was 143 mg/L (≈ 413 µM).
Compound `CCn1cc(C(=O)O)c(=O)c2cc(F)c(N3CCNCC3)cc21` [Norfloxacin] returned a LogMA in series [1] of 0.602. Besides, at human serum albumin (human), the LogHSA was −3.000.
For `C[C@H](CS)C(=O)N1CCC[C@H]1C(=O)O` [Captopril], the LogMA in series [1] is 0.477. Moreover, the LogHSA on human serum albumin (human) is given as −3.222.
The matching figures for `CC(C)NCC(O)c1ccc(NS(C)(=O)=O)cc1` (centres unmarked) [Sotalol]: 1.301 and −1.678.
The matching figures for `C=CCOc1ccccc1OCC(O)CNC(C)C` (centres unmarked) [Oxprenolol]: 2.301 and −3.301.
On to `CCCC(C)C1(CC)C(=O)NC(=O)NC1=O` (centres unmarked) [Pentobarbital], for which the LogMA in series [1] was 2.176. The compound further registered a LogHSA at human serum albumin (setting [3]) of −2.523.
For `CN(C)CCCN1c2ccccc2Sc2ccc(Cl)cc21` [Chlorpromazine], in series [1], the LogMA turned out to be 4.075. The compound further returned a LogHSA on human serum albumin (human) of −3.284.
Taken in the same sequence, the figures for `CC(CN1c2ccccc2Sc2ccccc21)N(C)C` (centres unmarked) [Promethazine] were 3.992 and −3.028.
In series [1], `CC1(C)S[C@@H]2[C@H](NC(=O)COc3ccccc3)C(=O)N2[C@H]1C(=O)O` [Phenoxymethyl penicillinic acid] returned a LogMA of 1.146. At human serum albumin, this compound returned a LogHSA of −3.102.
Take `OC(CCN1CCCCC1)(c1ccccc1)C1CCCCC1` (centres unmarked) [Trihexylphenidyl]: in series [1], the LogMA stood at 2.415. Moreover, the LogHSA at human serum albumin (setting [3]) is −3.006.
Take `CC(CCc1ccccc1)NCC(O)c1ccc(O)c(C(N)=O)c1` (centres unmarked) [Labetalol]: the LogMA in series [1] came out at 3.620. For the same compound, the Solubility in series [2] was 73 mg/L (≈ 222 µM).
For the compound `COCCc1ccc(OCC(O)CNC(C)C)cc1` (centres unmarked) [Metoprolol], the LogMA in series [1] is listed as 1.591. The compound also came in with a LogHSA at human serum albumin (human) of −2.000.
`C=CCc1ccccc1OCC(O)CNC(C)C` (centres unmarked) [Alprenolol] displayed a LogMA in series [1] of 2.699. Besides, the Solubility in series [2] is listed as 547 mg/L (≈ 2190 µM).

Usually Solubility stands for how much of the substance goes into solution per volume.

The record behind these values is US20050137807A1, “Method of visualization of the ADME properties of chemical substances” (priority 2003, published 2005).
